Like-named read-outs stand apart in the source and are kept apart here.
Columns and labels:
Type in all cases: cell-based
P. aeruginosa = system: P. aeruginosa
[1] = system: microorganisms with acquired resistance; assay: microbe, parasite or virus in culture
E. faecalis = system: E. faecalis
[2] = system: inherently resistant microorganisms; assay: microbe, parasite or virus in culture
K. pneumoniae = system: K. pneumoniae
S. aureus = system: S. aureus
bacterial isolates = assay: microbe, parasite or virus in culture
A. calcoaceticus = system: A. calcoaceticus
E. cloacae = system: E. cloacae
E. coli = system: E. coli
S. maltophilia = system: S. maltophilia
S. marcescens = system: S. marcescens
S. epidermidis = system: S. epidermidis
[3] = peptide + Amikacin, P. aeruginosa PA022
[4] = peptide + Gentamicin, A. baumannii ABI001
[5] = peptide + Gentamicin, A. baumannii ABI002
[6] = peptide + Gentamicin, A. calcoaceticus AC001
[7] = peptide + Gentamicin, P. aeruginosa PA041
[8] = peptide + Gentamicin, S. maltophilia SMA019
[9] = peptide + Ceftriaxone, A. baumannii ABI005
[10] = peptide + Ceftriaxone, B. cepacia BC003
[11] = peptide + Ceftriaxone, E. cloacae ECL014
[12] = peptide + Ceftriaxone, E. cloacae ECL015

## ILRWPWWPWRRKIMILKKAGS [MBI 11B16CN]
P. aeruginosa; P. aeruginosa strain PA004
  MIC: >128 µg/mL
[1]; A. baumannii ABI001
  Gentamicin MIC + Peptide: 4 µg/mL
  Peptide MIC + Gentamicin: 4 µg/mL
[1]; A. baumannii ABI001, Gentamicin section
  Peptide MIC Alone: 16 µg/mL
[1]; A. baumannii ABI002
  Gentamicin MIC + Peptide: 2 µg/mL
  Peptide MIC + Gentamicin: 4 µg/mL
[1]; A. baumannii ABI002, Gentamicin section
  Peptide MIC Alone: 16 µg/mL
[1]; A. calcoaceticus AC001
  Gentamicin MIC + Peptide: 1 µg/mL
  Peptide MIC + Gentamicin: 4 µg/mL
[1]; A. calcoaceticus AC001, Gentamicin section
  Peptide MIC Alone: 32 µg/mL
[1]; P. aeruginosa PA022
  Amikacin MIC + Peptide: 8 µg/mL
  Peptide MIC + Amikacin: 16 µg/mL
[1]; P. aeruginosa PA022, Amikacin section
  Peptide MIC Alone: 64 µg/mL
[1]; P. aeruginosa PA023
  Gentamicin MIC + Peptide: 4 µg/mL
  Peptide MIC + Gentamicin: 16 µg/mL
[1]; P. aeruginosa PA023, Gentamicin section
  Peptide MIC Alone: >128 µg/mL
[1]; P. aeruginosa PA041
  Gentamicin MIC + Peptide: 2 µg/mL
  Peptide MIC + Gentamicin: 16 µg/mL
[1]; P. aeruginosa PA041, Gentamicin section
  Peptide MIC Alone: >128 µg/mL
[1]; S. maltophilia SMA017
  Gentamicin MIC + Peptide: 2 µg/mL
  Peptide MIC + Gentamicin: 16 µg/mL
[1]; S. maltophilia SMA017, Gentamicin section
  Peptide MIC Alone: 128 µg/mL
[1]; S. maltophilia SMA019
  Gentamicin MIC + Peptide: 0.5 µg/mL
  Peptide MIC + Gentamicin: 16 µg/mL
[1]; S. maltophilia SMA019, Gentamicin section
  Peptide MIC Alone: 32 µg/mL
[1]; [3]
  FIC: 0.38
[1]; [4]
  FIC: 0.31
[1]; [5]
  FIC: 0.31
[1]; [6]
  FIC: 0.25
[1]; peptide + Gentamicin, P. aeruginosa PA023
  FIC: 0.56
[1]; [7]
  FIC: 0.31
[1]; peptide + Gentamicin, S. maltophilia SMA017
  FIC: 0.16
[1]; [8]
  FIC: 0.51
E. faecalis; E. faecalis strain EFS001
  MIC: 2 µg/mL
[2]; A. baumannii
  Peptide MIC + Amikacin: 4 µg/mL
[2]; A. baumannii, Amikacin section
  Peptide MIC Alone: 32 µg/mL
[2]; S. aureus MRSA
  Peptide MIC + Amikacin: 4 µg/mL
  Peptide MIC + Gentamicin: 4 µg/mL
[2]; S. aureus MRSA, Amikacin section
  Peptide MIC Alone: 8 µg/mL
[2]; S. aureus MRSA, Gentamicin section
  Peptide MIC Alone: 8 µg/mL
[2]; peptide + Amikacin, A. baumannii
  FIC: 0.25
[2]; peptide + Gentamicin, S. aureus MRSA
  FIC: 0.53
K. pneumoniae; K. pneumoniae strain KP001
  MIC: 16 µg/mL
S. aureus; S. aureus strain SA093
  MIC: 2 µg/mL
Bacterial isolates; 1. Amikacin, A. baumannii ABI001
  Peptide MIC Alone: 32 µg/mL
Bacterial isolates; 1. Amikacin, A. baumannii ABI003
  Peptide MIC Alone: 16 µg/mL
Bacterial isolates; 1. Amikacin, E. faecalis EFS008
  Peptide MIC Alone: 8 µg/mL
Bacterial isolates; 1. Amikacin, P. aeruginosa PA022
  Peptide MIC Alone: 64 µg/mL
Bacterial isolates; 1. Amikacin, P. aeruginosa PA037
  Peptide MIC Alone: >128 µg/mL
Bacterial isolates; 1. Amikacin, S. maltophilia SMA018
  Peptide MIC Alone: 32 µg/mL
Bacterial isolates; 1. Amikacin, S. maltophilia SMA022
  Peptide MIC Alone: >128 µg/mL
Bacterial isolates; 4. Gentamicin, A. baumannii ABI001
  Peptide MIC Alone: 16 µg/mL
Bacterial isolates; 4. Gentamicin, A. baumannii ABI002
  Peptide MIC Alone: 16 µg/mL
Bacterial isolates; 4. Gentamicin, A. calcoaceticus AC001
  Peptide MIC Alone: 32 µg/mL
Bacterial isolates; 4. Gentamicin, E. faecalis EFS008
  Peptide MIC Alone: 4 µg/mL
Bacterial isolates; 4. Gentamicin, P. aeruginosa PA022
  Peptide MIC Alone: 64 µg/mL
Bacterial isolates; 4. Gentamicin, P. aeruginosa PA041
  Peptide MIC Alone: >128 µg/mL
Bacterial isolates; 4. Gentamicin, S. aureus SA014 MRSA
  Peptide MIC Alone: 8 µg/mL
Bacterial isolates; 4. Gentamicin, S. maltophilia SMA016
  Peptide MIC Alone: >128 µg/mL
Bacterial isolates; 4. Gentamicin, S. maltophilia SMA019
  Peptide MIC Alone: 32 µg/mL
Bacterial isolates; A. baumannii ABI001
  Amikacin MIC + Peptide: 0.125 µg/mL
  Gentamicin MIC + Peptide: 4 µg/mL
  Peptide MIC + Amikacin: 16 µg/mL
  Peptide MIC + Gentamicin: 4 µg/mL
Bacterial isolates; A. baumannii ABI002
  Gentamicin MIC + Peptide: 2 µg/mL
  Peptide MIC + Gentamicin: 4 µg/mL
Bacterial isolates; A. baumannii ABI003
  Amikacin MIC + Peptide: 0.5 µg/mL
  Peptide MIC + Amikacin: 8 µg/mL
Bacterial isolates; A. calcoaceticus AC001
  Gentamicin MIC + Peptide: 1 µg/mL
  Peptide MIC + Gentamicin: 4 µg/mL
Bacterial isolates; E. faecalis EFS008
  Amikacin MIC + Peptide: 8 µg/mL
  Gentamicin MIC + Peptide: 64 µg/mL
  Peptide MIC + Amikacin: 0.25 µg/mL
  Peptide MIC + Gentamicin: 0.5 µg/mL
Bacterial isolates; P. aeruginosa PA022
  Amikacin MIC + Peptide: 8 µg/mL
  Gentamicin MIC + Peptide: 8 µg/mL
  Peptide MIC + Amikacin: 16 µg/mL
  Peptide MIC + Gentamicin: 8 µg/mL
Bacterial isolates; P. aeruginosa PA037
  Amikacin MIC + Peptide: 2 µg/mL
  Peptide MIC + Amikacin: 32 µg/mL
Bacterial isolates; P. aeruginosa PA041
  Gentamicin MIC + Peptide: 2 µg/mL
  Peptide MIC + Gentamicin: 16 µg/mL
Bacterial isolates; S. aureus SA014 MRSA
  Gentamicin MIC + Peptide: 1 µg/mL
  Peptide MIC + Gentamicin: 4 µg/mL
Bacterial isolates; S. maltophilia SMA016
  Gentamicin MIC + Peptide: 64 µg/mL
  Peptide MIC + Gentamicin: 16 µg/mL
Bacterial isolates; S. maltophilia SMA018
  Amikacin MIC + Peptide: 8 µg/mL
  Peptide MIC + Amikacin: 8 µg/mL
Bacterial isolates; S. maltophilia SMA019
  Gentamicin MIC + Peptide: 8 µg/mL
  Peptide MIC + Gentamicin: 8 µg/mL
Bacterial isolates; S. maltophilia SMA022
  Amikacin MIC + Peptide: 8 µg/mL
  Peptide MIC + Amikacin: 16 µg/mL
Bacterial isolates; peptide + Amikacin, A. baumannii ABI001
  FIC: 0.50
Bacterial isolates; peptide + Amikacin, A. baumannii ABI003
  FIC: 0.53
Bacterial isolates; peptide + Amikacin, E. faecalis EFS008
  FIC: 0.28
Bacterial isolates; [3]
  FIC: 0.38
Bacterial isolates; peptide + Amikacin, P. aeruginosa PA037
  FIC: 0.25
Bacterial isolates; peptide + Amikacin, S. maltophilia SMA018
  FIC: 0.31
Bacterial isolates; peptide + Amikacin, S. maltophilia SMA022
  FIC: 0.09
Bacterial isolates; [4]
  FIC: 0.31
Bacterial isolates; [5]
  FIC: 0.31
Bacterial isolates; [6]
  FIC: 0.25
Bacterial isolates; peptide + Gentamicin, E. faecalis EFS008
  FIC: 0.38
Bacterial isolates; peptide + Gentamicin, P. aeruginosa PA022
  FIC: 0.38
Bacterial isolates; [7]
  FIC: 0.31
Bacterial isolates; peptide + Gentamicin, S. aureus SA014 MRSA
  FIC: 0.53
Bacterial isolates; peptide + Gentamicin, S. maltophilia SMA016
  FIC: 0.31
Bacterial isolates; [8]
  FIC: 0.38
A. calcoaceticus; A. calcoaceticus strain AC002
  MIC: 4 µg/mL
E. cloacae; E. cloacae strain ECL007
  MIC: >128 µg/mL
E. coli; E. coli strain ECO005
  MIC: 16 µg/mL
S. maltophilia; S. maltophilia strain SMA002
  MIC: 32 µg/mL
S. marcescens; S. marcescens strain SMS003
  MIC: >128 µg/mL
S. epidermidis; S. epidermidis strain SE010
  MIC: 4 µg/mL

## WRWWKPKWRWPKW [MBI 11J02CN]
P. aeruginosa; P. aeruginosa PA004
  MIC: 32 µg/mL
[1]; A. baumannii ABI005
  Ceftriaxone MIC + Peptide: 8 µg/mL
  Peptide MIC + Ceftriaxone: 0.5 µg/mL
[1]; A. baumannii ABI005, Ceftriaxone section
  Peptide MIC Alone: 8 µg/mL
[1]; A. lwoffii ALW007
  Ceftriaxone MIC + Peptide: 4 µg/mL
  Peptide MIC + Ceftriaxone: 2 µg/mL
[1]; A. lwoffii ALW007, Ceftriaxone section
  Peptide MIC Alone: 4 µg/mL
[1]; B. cepacia BC003
  Ceftriaxone MIC + Peptide: 8 µg/mL
  Peptide MIC + Ceftriaxone: 32 µg/mL
[1]; B. cepacia BC003, Ceftriaxone section
  Peptide MIC Alone: >128 µg/mL
[1]; E. cloacae ECL014
  Ceftriaxone MIC + Peptide: 0.25 µg/mL
  Peptide MIC + Ceftriaxone: 16 µg/mL
[1]; E. cloacae ECL014, Ceftriaxone section
  Peptide MIC Alone: 32 µg/mL
[1]; E. cloacae ECL015
  Ceftriaxone MIC + Peptide: 1 µg/mL
  Peptide MIC + Ceftriaxone: 16 µg/mL
[1]; E. cloacae ECL015, Ceftriaxone section
  Peptide MIC Alone: 32 µg/mL
[1]; [9]
  FIC: 0.56
[1]; peptide + Ceftriaxone, A. lwoffii ALW007
  FIC: 0.75
[1]; [10]
  FIC: 0.63
[1]; [11]
  FIC: 0.50
[1]; [12]
  FIC: 0.52
E. faecalis; E. faecalis EFS001
  MIC: 4 µg/mL
E. faecalis; E. faecalis EFS008
  MIC: 16 µg/mL
[2]; P. aeruginosa
  Peptide MIC + Ceftriaxone: 32 µg/mL
[2]; P. aeruginosa, Ceftriaxone section
  Peptide MIC Alone: 64 µg/mL
K. pneumoniae; K. pneumoniae KP001
  MIC: 4 µg/mL
S. aureus; S. aureus SA014
  MIC: 2 µg/mL
S. aureus; S. aureus SA093
  MIC: 1 µg/mL
Bacterial isolates; 2. Ceftriaxone, A. baumannii ABI005
  Peptide MIC Alone: 8 µg/mL
Bacterial isolates; 2. Ceftriaxone, B. cepacia BC003
  Peptide MIC Alone: >128 µg/mL
Bacterial isolates; 2. Ceftriaxone, E. cloacae ECL014
  Peptide MIC Alone: 32 µg/mL
Bacterial isolates; 2. Ceftriaxone, E. cloacae ECL015
  Peptide MIC Alone: 32 µg/mL
Bacterial isolates; 2. Ceftriaxone, P. aeruginosa PA008
  Peptide MIC Alone: 64 µg/mL
Bacterial isolates; 2. Ceftriaxone, P. aeruginosa PA039
  Peptide MIC Alone: 64 µg/mL
Bacterial isolates; 2. Ceftriaxone, S. aureus SA025 MRSA
  Peptide MIC Alone: 2 µg/mL
Bacterial isolates; 2. Ceftriaxone, S. epidermidis SE012
  Peptide MIC Alone: 4 µg/mL
Bacterial isolates; 2. Ceftriaxone, S. epidermidis SE073
  Peptide MIC Alone: 4 µg/mL
Bacterial isolates; A. baumannii ABI005
  Ceftriaxone MIC + Peptide: 8 µg/mL
  Peptide MIC + Ceftriaxone: 0.5 µg/mL
Bacterial isolates; B. cepacia BC003
  Ceftriaxone MIC + Peptide: 4 µg/mL
  Peptide MIC + Ceftriaxone: 64 µg/mL
Bacterial isolates; E. cloacae ECL014
  Ceftriaxone MIC + Peptide: 16 µg/mL
  Peptide MIC + Ceftriaxone: 8 µg/mL
Bacterial isolates; E. cloacae ECL015
  Ceftriaxone MIC + Peptide: 16 µg/mL
  Peptide MIC + Ceftriaxone: 8 µg/mL
Bacterial isolates; P. aeruginosa PA008
  Ceftriaxone MIC + Peptide: 0.125 µg/mL
  Peptide MIC + Ceftriaxone: 32 µg/mL
Bacterial isolates; P. aeruginosa PA039
  Ceftriaxone MIC + Peptide: 16 µg/mL
  Peptide MIC + Ceftriaxone: 16 µg/mL
Bacterial isolates; S. aureus SA025 MRSA
  Ceftriaxone MIC + Peptide: 0.125 µg/mL
  Peptide MIC + Ceftriaxone: 1 µg/mL
Bacterial isolates; S. epidermidis SE012
  Ceftriaxone MIC + Peptide: 16 µg/mL
  Peptide MIC + Ceftriaxone: 1 µg/mL
Bacterial isolates; S. epidermidis SE073
  Ceftriaxone MIC + Peptide: 16 µg/mL
  Peptide MIC + Ceftriaxone: 1 µg/mL
Bacterial isolates; [9]
  FIC: 0.56
Bacterial isolates; [10]
  FIC: 0.50
Bacterial isolates; [11]
  FIC: 0.38
Bacterial isolates; [12]
  FIC: 0.50
Bacterial isolates; peptide + Ceftriaxone, P. aeruginosa PA008
  FIC: 0.50
Bacterial isolates; peptide + Ceftriaxone, P. aeruginosa PA039
  FIC: 0.50
Bacterial isolates; peptide + Ceftriaxone, S. aureus SA025 MRSA
  FIC: 0.52
Bacterial isolates; peptide + Ceftriaxone, S. epidermidis SE012
  FIC: 0.50
Bacterial isolates; peptide + Ceftriaxone, S. epidermidis SE073
  FIC: 0.38
A. calcoaceticus; A. calcoaceticus AC002
  MIC: 4 µg/mL
E. cloacae; E. cloacae ECL007
  MIC: 64 µg/mL
E. coli; E. coli ECO005
  MIC: 4 µg/mL
S. maltophilia; S. maltophilia SMA002
  MIC: 8 µg/mL
S. marcescens; S. marcescens SMS003
  MIC: >128 µg/mL
S. epidermidis; S. epidermidis SE010
  MIC: 2 µg/mL
